Measured values published in paper PMC9387934, “Randomized single oral dose phase 1 study of safety, tolerability, and pharmacokinetics of Iminosugar UV-4 Hydrochloride (UV-4B) in healthy subjects” (PLoS Neglected Tropical Diseases, 2022).
Where “and” joins values, the source holds several entries; their conditions need not be identical. Identical values can stand only once.

Test: Phase 1a single ascending dose study: UV-4 plasma concentrations and PK parameters (LC-MS/MS, noncompartmental)
Format: in vivo
Conditions: for CONCENTRATION UV4: human plasma
Protocol: UV-4 ((2R,3R,4R,5S)-2-(hydroxymethyl)-1-(9-methoxynonyl)piperidine-3,4,5-triol, also called N-(9’-methoxynonyl)-1-deoxynojirimycin, or MON-DNJ) hydrochloride was evaluated in a first-in-human, randomized, single-center, double-blind, placebo-controlled, parallel group, single ascending dose Phase 1a clinical trial in healthy subjects (Figs 1 and 2, ClinicalTrials.gov Identifier NCT02061358 https://clinicaltrials.gov/ct2/show/NCT02061358). The primary objective was to determine the safety and tolerability of a single-ascending oral dose of UV-4 hydrochloride (Fig 3). […] The secondary objective was to determine PK parameters describing absorption and elimination of UV-4 following a single oral dose of UV-4 hydrochloride. Eight cohorts of eight subjects each were enrolled and completed the study. In each cohort, six subjects received UV-4 as the hydrochloride; two received placebo. Subjects were screened against study eligibility criteria up to four weeks (Days -28 to -2) before admission to the clinic (Day -1). Dosing was performed on an inpatient basis. Subjects remained in clinic for 48 hours post-dosing for PK sample collection and safety assessments and were discharged from the clinic on Day 3. Subjects returned to the clinic on Day 4 for additional safety assessments, then again on Day 9 ± 1 for a final follow-up visit.
Eligible subjects were healthy males and females, age 18–45 years, with a body mass index between 18 and 30 kg/m^2 inclusive and a minimum body weight of 60 kg. Subjects were considered healthy based on medical history, physical exam, vital signs, 12-lead electrocardiogram (ECG), clinical laboratory tests (hematology, blood chemistry, urinalysis), viral serology, and drug and alcohol screening. Male and female subjects of childbearing potential were required to use adequate contraception over the course of the clinical trial. […] Only subjects who met all inclusion and none of the exclusion criteria prior to administration of the investigational product were enrolled into the study (no exemptions were granted). A total of 64 subjects were enrolled (eight cohorts of eight subjects each). In each of the eight cohorts, six subjects were randomized to receive a single dose of UV-4 (3 to 1000 mg, depending on cohort) as the hydrochloride salt, and two subjects to receive placebo. Cohort size of six active subjects was based on analysis that increasing cohort size above six in a first-in-human study gains little in the ability to observe a drug induced event, and results in observing more events that are not related to study drug. Two of the eight subjects in each cohort (sentinel subjects; one active and one placebo) received their doses at least 48 h before the remaining subjects in each cohort.
On each day of use, bulk drug substance (UV-4B for solubilization, SAI Life Sciences Ltd. Telangana, India) was removed from a single-use container, weighed at the study center, and solubilized in 20 mL sterile water for injection (SWFI) (Hospira Inc. Illinois, United States of America). Weight of solid drug substance was converted to dose of UV-4 by applying purity and salt correction factor per pharmacy manual when preparing the dosing solution. UV-4B solution was administered orally with 10 mL of taste-masking agent, OraSweet-SF (Paddock Laboratories LLC, Minneapolis, United States of America) in a total volume of 30 mL, to assist in maintaining study blinding. Placebo was SWFI (20 mL) plus OraSweet-SF (10 mL). Concentrations and doses were calculated and expressed as the active free base form, UV-4. This methodology is consistent with USP<1121>, which recommends that the strength of a drug product or preparation is expressed in terms of the active moiety. Following consumption of active or placebo solution, the dosing container was rinsed with 50 mL of tap water also consumed by subjects. […]

SMILES: COCCCCCCCCCN1C[C@H](O)[C@@H](O)[C@H](O)[C@H]1CO [UV4]
- CONCENTRATION UV4 in human plasma (Cohort 7, nominal day 1, nominal hour 0, individual subjects): <LLOQ (0.500) ng/mL
- CONCENTRATION UV4 in human plasma (Cohort 7, nominal day 1, nominal hour 0, subject with all samples <LLOQ): <LLOQ (0.500) ng/mL
- CONCENTRATION UV4 in human plasma (Cohort 7, nominal day 1, nominal hour 0.5, individual subjects): 8420 ng/mL and 5960 ng/mL and 5510 ng/mL and 13200 ng/mL and 9650 ng/mL
- CONCENTRATION UV4 in human plasma (Cohort 7, nominal day 1, nominal hour 0.5, subject with all samples <LLOQ): <LLOQ (0.500) ng/mL
- CONCENTRATION UV4 in human plasma (Cohort 7, nominal day 1, nominal hour 1, individual subjects): 8390 ng/mL and 11600 ng/mL and 8700 ng/mL and 11700 ng/mL and 8870 ng/mL
- CONCENTRATION UV4 in human plasma (Cohort 7, nominal day 1, nominal hour 1, subject with all samples <LLOQ): <LLOQ (0.500) ng/mL
- CONCENTRATION UV4 in human plasma (Cohort 7, nominal day 1, nominal hour 1.5, individual subjects): 7250 ng/mL and 7490 ng/mL and 5760 ng/mL and 7510 ng/mL and 6190 ng/mL
- CONCENTRATION UV4 in human plasma (Cohort 7, nominal day 1, nominal hour 1.5, subject with all samples <LLOQ): <LLOQ (0.500) ng/mL
- CONCENTRATION UV4 in human plasma (Cohort 7, nominal day 1, nominal hour 2, individual subjects): 5560 ng/mL and 6260 ng/mL and 4660 ng/mL and 6160 ng/mL and 5490 ng/mL
- CONCENTRATION UV4 in human plasma (Cohort 7, nominal day 1, nominal hour 2, subject with all samples <LLOQ): <LLOQ (0.500) ng/mL
- CONCENTRATION UV4 in human plasma (Cohort 7, nominal day 1, nominal hour 2.5, individual subjects): 4270 ng/mL and 6030 ng/mL and 3950 ng/mL and 4710 ng/mL and 4800 ng/mL
- CONCENTRATION UV4 in human plasma (Cohort 7, nominal day 1, nominal hour 2.5, subject with all samples <LLOQ): <LLOQ (0.500) ng/mL
- CONCENTRATION UV4 in human plasma (Cohort 7, nominal day 1, nominal hour 3, individual subjects): 3650 ng/mL and 5660 ng/mL and 3610 ng/mL and 4080 ng/mL and 4540 ng/mL
- CONCENTRATION UV4 in human plasma (Cohort 7, nominal day 1, nominal hour 3, subject with all samples <LLOQ): <LLOQ (0.500) ng/mL
- CONCENTRATION UV4 in human plasma (Cohort 7, nominal day 1, nominal hour 4, individual subjects): 2230 ng/mL and 3760 ng/mL and 2630 ng/mL and 3120 ng/mL and 3370 ng/mL
- CONCENTRATION UV4 in human plasma (Cohort 7, nominal day 1, nominal hour 4, subject with all samples <LLOQ): <LLOQ (0.500) ng/mL
- CONCENTRATION UV4 in human plasma (Cohort 7, nominal day 1, nominal hour 6, individual subjects): 1120 ng/mL and 1930 ng/mL and 1770 ng/mL and 1610 ng/mL and 1730 ng/mL
- CONCENTRATION UV4 in human plasma (Cohort 7, nominal day 1, nominal hour 6, subject with all samples <LLOQ): <LLOQ (0.500) ng/mL
- CONCENTRATION UV4 in human plasma (Cohort 7, nominal day 1, nominal hour 9, individual subjects): 429 ng/mL and 642 ng/mL and 790 ng/mL and 588 ng/mL and 656 ng/mL
- CONCENTRATION UV4 in human plasma (Cohort 7, nominal day 1, nominal hour 9, subject with all samples <LLOQ): <LLOQ (0.500) ng/mL
- CONCENTRATION UV4 in human plasma (Cohort 7, nominal day 1, nominal hour 12, individual subjects): 184 ng/mL and 254 ng/mL and 352 ng/mL and 266 ng/mL and 301 ng/mL
- CONCENTRATION UV4 in human plasma (Cohort 7, nominal day 1, nominal hour 12, subject with all samples <LLOQ): <LLOQ (0.500) ng/mL
- CONCENTRATION UV4 in human plasma (Cohort 7, nominal day 1, nominal hour 18, individual subjects): 47.6 ng/mL and 69.6 ng/mL and 82.9 ng/mL and 80.3 ng/mL and 78.0 ng/mL
- CONCENTRATION UV4 in human plasma (Cohort 7, nominal day 1, nominal hour 18, subject with all samples <LLOQ): <LLOQ (0.500) ng/mL
- CONCENTRATION UV4 in human plasma (Cohort 7, nominal day 2, nominal hour 24, individual subjects): 58.7 ng/mL and 27.8 ng/mL and 38.9 ng/mL and 46.4 ng/mL and 45.6 ng/mL and 40.8 ng/mL
- CONCENTRATION UV4 in human plasma (Cohort 7, nominal day 2, nominal hour 24, subject with all samples <LLOQ): <LLOQ (0.500) ng/mL
- CONCENTRATION UV4 in human plasma (Cohort 7, nominal day 2, nominal hour 36, individual subjects): 17.4 ng/mL and 8.03 ng/mL and 10.9 ng/mL and 14.8 ng/mL and 12.7 ng/mL
- CONCENTRATION UV4 in human plasma (Cohort 7, nominal day 2, nominal hour 36, subject with all samples <LLOQ): <LLOQ (0.500) ng/mL
- CONCENTRATION UV4 in human plasma (Cohort 7, nominal day 3, nominal hour 48, individual subjects): 7.94 ng/mL and 3.58 ng/mL and 4.75 ng/mL and 6.57 ng/mL and 8.76 ng/mL and 6.60 ng/mL
- CONCENTRATION UV4 in human plasma (Cohort 7, nominal day 3, nominal hour 48, subject with all samples <LLOQ): <LLOQ (0.500) ng/mL
- CONCENTRATION UV4 in human plasma (Cohort 8, nominal day 1, nominal hour 0, subjects with all samples <LLOQ): <LLOQ (0.500) ng/mL
- CONCENTRATION UV4 in human plasma (Cohort 8, nominal day 1, nominal hour 0.5, subjects with all samples <LLOQ): <LLOQ (0.500) ng/mL
- CONCENTRATION UV4 in human plasma (Cohort 8, nominal day 1, nominal hour 1, subjects with all samples <LLOQ): <LLOQ (0.500) ng/mL
- CONCENTRATION UV4 in human plasma (Cohort 8, nominal day 1, nominal hour 1.5, subjects with all samples <LLOQ): <LLOQ (0.500) ng/mL
- CONCENTRATION UV4 in human plasma (Cohort 8, nominal day 1, nominal hour 2, subjects with all samples <LLOQ): <LLOQ (0.500) ng/mL
- CONCENTRATION UV4 in human plasma (Cohort 8, nominal day 1, nominal hour 2.5, subjects with all samples <LLOQ): <LLOQ (0.500) ng/mL
- CONCENTRATION UV4 in human plasma (Cohort 8, nominal day 1, nominal hour 3, subjects with all samples <LLOQ): <LLOQ (0.500) ng/mL
- CONCENTRATION UV4 in human plasma (Cohort 8, nominal day 1, nominal hour 4, subjects with all samples <LLOQ): <LLOQ (0.500) ng/mL
- CONCENTRATION UV4 in human plasma (Cohort 8, nominal day 1, nominal hour 6, subjects with all samples <LLOQ): <LLOQ (0.500) ng/mL
- CONCENTRATION UV4 in human plasma (Cohort 8, nominal day 1, nominal hour 9, subjects with all samples <LLOQ): <LLOQ (0.500) ng/mL
- CONCENTRATION UV4 in human plasma (Cohort 8, nominal day 1, nominal hour 12, subjects with all samples <LLOQ): <LLOQ (0.500) ng/mL
- CONCENTRATION UV4 in human plasma (Cohort 8, nominal day 1, nominal hour 18, subjects with all samples <LLOQ): <LLOQ (0.500) ng/mL
- CONCENTRATION UV4 (Cohort 1, nominal day 1, nominal hour 0): <LLOQ (0.500) ng/mL
- CONCENTRATION UV4 (Cohort 1, nominal day 3, nominal hour 48): <LLOQ (0.500) ng/mL
